In brackets after ≈: the same amount, converted by molar mass. Read-outs that look alike come from different tables or passages of the source.
Columns and labels:
[1] = test system: Bacillus cereus ATCC 11778; test: MIC and MBC, macro dilution tube method; assay type: cell-based
Source text: (§1) To evaluate the antimicrobial potential of the synthesized compounds, the following reference strains of bacteria, that are economically important in foods, were employed: Gram-positive Listeria monocytogenes ATCC 7644, Staphylococcus aureus ATCC 25923, and Bacillus cereus ATCC 11778; Gram-negative Salmonella Typhimurium ATCC 14028, Escherichia coli O157: H7 NCTC 12900 and the clinically important Pseudomonas aeruginosa ATCC 15442.
(§2) The antimicrobial activity assay using the disk diffusion test was realized using the methodology that is recommended by the Clinical Laboratory Standards Institute (CLSI). The determination of the minimum inhibitory concentration (MIC) and minimum bactericidal concentration (MBC) was performed using the macro dilution tube method, in accordance with Rota et al., with modifications. Details of these assays are provided in the Supplemental Material. […]
(§3) 2.2. Determination of the minimum inhibitory concentration (MIC) and minimum bactericidal concentration
(§4) The MIC was determined using the macro dilution tube method, in accordance with Rota et al.
(§5) [5], with modifications. The tested concentrations were 20, 18, 15, 12, 10, 7 and 5 μL.mL‐1 of each compound. In a tube with 1 mL of MH broth, was inoculated 105 UFC.mL‐1, the compound in a predetermined concentration and, to facilitate the solubility, 2 drops of TWEEN 80. The mixture was incubated at 37 °C for 24 h under stirring (150 rpm). As the positive control, MH broth and inoculum concentration in 105 UFC.mL‐1 and as the negative control MH, the inoculum concentration in 105 UFC∙mL‐1 and streptomycin (10 μg) were used. MIC was defined as the lowest concentration of […]
(§6) After 24 h, tubes with no visible growth were seeded in a […] TSA‐YE tube and incubated at 37 °C for 24 h. The MBC is the lowest concentration of compound where 99.9% of the initially inoculated cells were killed. […]
(§7) 2.4. Radical Scavenging Activity […]
(§8) The ABTS radical scavenging activity was determined according to the method described by Erel. Different concentrations of compounds 5a–d and 10 (10–500 μ M) were mixed with the ABTS+ solution, and the decrease in the absorbance at 734 nm was recorded.

[2] = test system: Escherichia coli O157: H7 NCTC 12900; test: MIC and MBC, macro dilution tube method; assay type: cell-based; settings: for MBC: E. coli O157:H7, 10^5 CFU.mL^−1; for MIC: E. coli O157:H7, 10^5 CFU.mL^−1, 24 h
Source text: as §1, §2, §3, §4, §5, §6, §7, §8

[3] = test system: Staphylococcus aureus ATCC 25923; test: MIC and MBC, macro dilution tube method; assay type: cell-based; settings: S. mureus (so in the source); for MBC: 10^5 CFU.mL^−1; for MIC: 10^5 CFU.mL^−1, 24 h
Source text: as §1, §2, §3, §4, §5, §6, §7, §8

[4] = ABTS radical scavenging; settings: mean ± SD (n = 3); for IC50: read-out: ABTS radical scavenging IC50 (concentration compound required for 50% scavenging)
Experimental: The antioxidant properties of the synthesized compounds (5a–d and 10) were evaluated by three different methods in vitro: DPPH (1,1-diphenyl-2-picryl-hydrazyl) and ABTS^+ (2,2′-azino-bis(3-ethylbenzthiazoline-6-sulfonic acid) radical scavenging ability and ferric ion reducing antioxidant power (FRAP). All drugs were dissolved in dimethyl sulfoxide (DMSO) at concentrations of 1–500 µM. These assays were performed according to the literature and details of these experiments are described elsewhere (see the ‘Results and Discussion’ section for the references). […]
2.3. Antioxidant activity assays
The antioxidant properties of the synthesized compounds were evaluated by three different methods in vitro: DPPH and ABTS+ radical scavenging activity and ferric ion reducing antioxidant power (FRAP). All drugs were dissolved in dimethyl sulfoxide (DMSO). The experimental results were given as the means ± standard deviation (SD) to show the variations among the groups. The statistical analysis was performed using one‐way analysis of variance (ANOVA) followed by Newman‐Keuls multiple comparison test when appropriate. The differences were considered statistically significant at a probability of less than 5% (p < 0.05). All tests were performed at least three times in duplicate. The IC50 values (the concentration of sample required to scavenge 50% of the free radicals) were calculated from the graph of the scavenging effect percentage versus the […]
2.4. Radical Scavenging Activity
To determine if compounds 5a–d and 10 present in vitro antioxidant activity against free radicals, DPPH and ABTS+ scavenging capability were evaluated at different concentrations. […]
The ABTS radical scavenging activity was determined according to the method described by Erel. Different concentrations of compounds 5a–d and 10 (10–500 μ M) were mixed with the ABTS+ solution, and the decrease in the absorbance at 734 nm was recorded. […]
values, as calculated by the following equation:
I% = [(Ac−As/Ac) × 100] (1)
3. Ferric ion reducing antioxidant power (FRAP) […]
reducing capacity of compounds 5a–d and 10.
[8] with slight modifications.
They were homogenized in a 0.1 M
The supernatants were used for determination of the δ‐ALAD activity. […]
and 500 μL of distilled water. […]
and the absorbance was read at 555 nm.

[5] = biological target: T1, δ-ALA-D (Mus musculus, UniProt P10518); test: δ-ALA-D activity in tissue supernatants (in vitro toxicity); settings: mean ± SD (n = 3)
T1 sequence (P10518 1-330): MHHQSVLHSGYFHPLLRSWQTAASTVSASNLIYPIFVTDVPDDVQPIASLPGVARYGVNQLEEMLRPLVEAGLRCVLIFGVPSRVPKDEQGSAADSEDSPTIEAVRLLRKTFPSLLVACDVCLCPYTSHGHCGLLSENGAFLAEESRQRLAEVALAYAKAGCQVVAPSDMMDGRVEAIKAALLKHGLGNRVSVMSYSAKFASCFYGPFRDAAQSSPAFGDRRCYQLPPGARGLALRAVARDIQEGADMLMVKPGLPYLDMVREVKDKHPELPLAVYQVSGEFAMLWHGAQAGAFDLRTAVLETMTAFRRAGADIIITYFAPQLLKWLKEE

[6] = test system: Listeria monocytogenes ATCC 7644; test: MIC and MBC, macro dilution tube method; assay type: cell-based; settings: L. monocytogenes
Source text: as §1, §2, §3, §4, §5, §6, §7, §8

[7] = test system: Pseudomonas aeruginosa ATCC 15442; test: MIC and MBC, macro dilution tube method; assay type: cell-based; settings: P. aeruginosa
Source text: as §1, §2, §3, §4, §5, §6, §7, §8

[8] = B. mereus (so in the source), 10^5 CFU.mL^−1
[9] = B. mereus (so in the source), 10^5 CFU.mL^−1, 24 h

`CC(C)=CCCC(C)C(/C=[N+](\C)[O-])Sc1ccccc1` (stereo not drawn) [5a, (E)-N,3,7-Trimethyl-2-(phenylthio)oct-6-en-1-imine oxide] gave an MBC [1, 8] of 0.59 mM.mL^−1, an MIC [1, 9] of 0.48 mM.mL^−1 and an MBC ([1]; Bacillus cereus, ATCC11778) of 590 µM (≈ 172 µg/mL). For the same molecule, the MIC ([1]; Bacillus cereus, ATCC11778, read-out: minimal inhibitory concentration (MIC)) was 480 µM (≈ 140 µg/mL), the MBC [2] was greater than 0.65 mM.mL^−1 and the MIC [2] was greater than 0.65 mM.mL^−1. The MBC [3] was greater than 0.65 mM.mL^−1, the MIC [3] was greater than 0.65 mM.mL^−1 and the “ABTS radical scavenging, percentage of inhibition in relation to control” value ([4]; 50 μM) was 11.74 ± 0.47 %. For the same molecule, the “ABTS radical scavenging, percentage of inhibition in relation to control” value ([4]; 100 μM) was 22.84 ± 1.02 %, the “ABTS radical scavenging, percentage of inhibition in relation to control” value ([4]; 500 μM) was 77.61 ± 0.81 % and the IC50 [4] was 297 ± 1 µM. It also gave a δ-ALA-D activity ([5]; Brain, 10 μM) of 0.44 ± 0.09 nmol PBG.mg.tn‐1.h‐1, a δ-ALA-D activity ([5]; Brain, 50 μM) of 0.42 ± 0.10 nmol PBG.mg.tn‐1.h‐1 and a δ-ALA-D activity ([5]; Brain, 100 μM) of 0.40 ± 0.11 nmol PBG.mg.tn‐1.h‐1. For the same molecule, the δ-ALA-D activity ([5]; Brain, 500 μM) was 0.36 ± 0.10 nmol PBG.mg.tn‐1.h‐1, the δ-ALA-D activity ([5]; Kidney, 10 μM) was 1.17 ± 0.05 nmol PBG.mg.tn‐1.h‐1 and the δ-ALA-D activity ([5]; Kidney, 50 μM) was 1.17 ± 0.07 nmol PBG.mg.tn‐1.h‐1. It also gave a δ-ALA-D activity ([5]; Kidney, 100 μM) of 1.09 ± 0.08 nmol PBG.mg.tn‐1.h‐1, a δ-ALA-D activity ([5]; Kidney, 500 μM) of 0.90 ± 0.08 nmol PBG.mg.tn‐1.h‐1 and a δ-ALA-D activity ([5]; Liver, 10 μM) of 4.99 ± 0.84 nmol PBG.mg.tn‐1.h‐1. For the same molecule, the δ-ALA-D activity ([5]; Liver, 50 μM) was 4.87 ± 0.67 nmol PBG.mg.tn‐1.h‐1, the δ-ALA-D activity ([5]; Liver, 100 μM) was 4.71 ± 0.89 nmol PBG.mg.tn‐1.h‐1 and the δ-ALA-D activity ([5]; Liver, 500 μM) was 4.46 ± 0.80 nmol PBG.mg.tn‐1.h‐1.
In the case of `CC(C)=CCC[C@@H](C)C(/C=N/O)[Se]c1ccccc1` (stereo partly drawn) [compound 10, (3R,E)-3,7-dimethyl-2-(phenylselanyl)oct-6-enal oxime], the MBC [1, 8] is reported as greater than 0.70 mM.mL^−1, the MIC [1, 9] is reported as greater than 0.70 mM.mL^−1 and the MBC [2] is reported as greater than 0.70 mM.mL^−1. For the same molecule, the MIC [2] was greater than 0.70 mM.mL^−1, the MBC ([6]; 10^5 CFU.mL^−1) was greater than 0.70 mM.mL^−1 and the MIC ([6]; 10^5 CFU.mL^−1, 24 h) was greater than 0.70 mM.mL^−1. It also gave an MBC ([7]; 10^5 CFU.mL^−1) greater than 0.70 mM.mL^−1, an MIC ([7]; 10^5 CFU.mL^−1, 24 h) greater than 0.70 mM.mL^−1 and an MBC [3] greater than 0.70 mM.mL^−1. The MIC [3] was greater than 0.70 mM.mL^−1, the “ABTS radical scavenging, percentage of inhibition in relation to control” value ([4]; 5 μM) was 2.39 ± 0.57% and the “ABTS radical scavenging, percentage of inhibition in relation to control” value ([4]; 10 μM) was 27.81 ± 2.12 %. The “ABTS radical scavenging, percentage of inhibition in relation to control” value ([4]; 50 μM) was 87.59 ± 4.81 %, the “ABTS radical scavenging, percentage of inhibition in relation to control” value ([4]; 100 μM) was 94.03 ± 1.05 % and the IC50 [4] was 25 ± 2 µM. For the same molecule, the δ-ALA-D activity ([5]; Brain, 10 μM) was 0.30 ± 0.10 nmol PBG.mg.tn‐1.h‐1, the δ-ALA-D activity ([5]; Brain, 50 μM) was 0.28 ± 0.09 nmol PBG.mg.tn‐1.h‐1 and the δ-ALA-D activity ([5]; Brain, 100 μM) was 0.26 ± 0.08 nmol PBG.mg.tn‐1.h‐1. The δ-ALA-D activity ([5]; Brain, 500 μM) was 0.26 ± 0.07 nmol PBG.mg.tn‐1.h‐1, the δ-ALA-D activity ([5]; Kidney, 10 μM) was 0.96 ± 0.12 nmol PBG.mg.tn‐1.h‐1 and the δ-ALA-D activity ([5]; Kidney, 50 μM) was 0.95 ± 0.10 nmol PBG.mg.tn‐1.h‐1. The δ-ALA-D activity ([5]; Kidney, 100 μM) was 0.84 ± 0.10 nmol PBG.mg.tn‐1.h‐1, the δ-ALA-D activity ([5]; Kidney, 500 μM) was 0.61 ± 0.12 nmol PBG.mg.tn‐1.h‐1 and the δ-ALA-D activity ([5]; Liver, 10 μM) was 4.90 ± 0.58 nmol PBG.mg.tn‐1.h‐1. It also gave a δ-ALA-D activity ([5]; Liver, 50 μM) of 4.71 ± 0.53 nmol PBG.mg.tn‐1.h‐1, a δ-ALA-D activity ([5]; Liver, 100 μM) of 4.57 ± 0.62 nmol PBG.mg.tn‐1.h‐1 and a δ-ALA-D activity ([5]; Liver, 500 μM) of 3.97 ± 0.82 nmol PBG.mg.tn‐1.h‐1.
